From patent US20090285773A1, “Hepatitis C Virus Inhibitors” (Bristol-Myers Squibb Company, priority 2008, published 2009)
Where two headings read alike, the source gives them in different places.

Key:
NS3/4A protease complex = target: T1, NS3/4A protease complex (UniProt P27958); test: HCV NS3/4A protease complex enzyme assay (strain not stated); assay type: biochemical; settings: Table 2; strain and unit inferred
T1 construct: fused on or other part: three-lysine solubilising tail at the C-terminus of NS4A; probably a His tag from pET21b (Ni-NTA purification)
From the text: The purpose of this in vitro assay was to measure the inhibition of HCV NS3 protease complexes, derived from the BMS strain, H77 strain or J4L6S strain, as described above, by compounds of the present disclosure. This assay provides an indication of how effective compounds of the present disclosure would be in inhibiting HCV NS3 proteolytic activity.
In order to monitor HCV NS3/4A protease activity, an NS3/4A peptide substrate was used. The substrate was RET S1 (Resonance Energy Transfer Depsipeptide Substrate; AnaSpec, Inc. cat #22991)(FRET peptide), described by Taliani et al. in Anal. Biochem. 240(2):60-67 (1996). The sequence of this peptide is loosely based on the NS4A/NS4B natural cleavage site for the HCV NS3 protease except there is an ester linkage rather than an amide bond at the cleavage site. The peptide also contains a fluorescence donor, EDANS, near one end of the peptide and an acceptor, DABCYL, near the other end. The fluorescence of the peptide is quenched by […] resonance energy transfer (RET) between the donor and the acceptor, but as the NS3 protease cleaves the peptide the products are released from RET quenching and the fluorescence of the donor becomes apparent.
The peptide substrate was incubated with one of the three recombinant NS3/4A protease complexes, in the absence or presence of a compound of the present disclosure. The inhibitory effects of a compound were determined by monitoring the formation of fluorescent reaction product in real time using a Cytofluor Series 4000.
Assay buffer: 50 mM HEPES, pH 7.5; 0.15 M NaCl; 0.1% Triton; 15% Glycerol; 10 mM βME. Substrate: 2 μM final concentration (from a 2 mM stock solution in DMSO stored at −20° C.). HCV NS3/4A protease type 1a (1b), 2-3 nM final concentration (from a 5 μM stock solution in 25 mM HEPES, pH 7.5, 20% glycerol, 300 mM NaCl, 0.2% Triton-X100, 10 mM βME). For compounds with potencies approaching the assay limit, the assay was made more sensitive by adding 50 μg/ml Bovine Serum Albumin (Sigma) to the assay buffer and reducing the end protease concentration to 300 pM.
The assay was performed in a 96-well polystyrene black plate from Falcon. Each well contained 25 μl NS3/4A protease complex in assay buffer, 50 μl of a compound of the present disclosure in 10% DMSO/assay buffer and 25 μl substrate in assay buffer. A control (no compound) was also prepared on the same assay plate. The enzyme complex was mixed with compound or control solution for 1 min before initiating the enzymatic reaction by the addition of substrate. The assay plate was read immediately using the Cytofluor Series 4000 (Perspective Biosystems). The instrument was set to read an emission of […] at 25° C. Reactions were generally followed for approximately 15 min.
The percent inhibition was calculated with the following equation: […]
where δF is the change in fluorescence over the linear range of the curve. A non-linear curve fit was applied to the inhibition-concentration data, and the 50% effective concentration (IC50) was calculated by the use of Excel XLfit software using the equation, y=A+((B−A)/(1+((C/x)̂D))).

[1] = tested on: HCV replicon (strain 1b) in HUH-7 cells; test: HCV replicon FRET assay; assay type: cell-based; settings: Hepatitis C virus
From the text: An HCV replicon whole cell system was established as described by Lohmann V, Korner F, Koch J, Herian U, Theilmann L, Bartenschlager R., Science 285(5424): 110-3 (1999). This system enabled us to evaluate the effects of our HCV Protease compounds on HCV RNA replication. Briefly, using the HCV strain 1b sequence described in the Lohmann paper (Assession number:AJ238799), an HCV cDNA was synthesized by Operon Technologies, Inc. (Alameda, Calif.), and the full-length replicon was then assembled in plasmid pGem9zf(+) (Promega, Madison, Wis.) using standard molecular biology techniques. The replicon consists of (i) the HCV 5′ UTR fused to the first 12 amino acids of the capsid protein, (ii) the neomycin phosphotransferase gene (neo), (iii) the IRES from encephalomyocarditis virus (EMCV), and (iv) HCV NS3 to NS5B genes and the HCV 3′ UTR. Plasmid DNAs were linearized with ScaI and RNA transcripts were synthesized in vitro using the T7 MegaScript transcription kit (Ambion, Austin, Tex.) according to manufacturer's directions. In vitro transcripts of the cDNA were transfected into the human hepatoma cell line, HUH-7. […] Resulting cell lines were characterized for positive and negative strand RNA production and protein production over time.
The HCV replicon FRET assay was developed to monitor the inhibitory effects of compounds described in the disclosure on HCV viral replication. HUH-7 cells, constitutively expressing the HCV replicon, were grown in Dulbecco's Modified Eagle Media (DMEM) (Gibco-BRL) containing 10% Fetal calf serum (FCS) (Sigma) and 1 mg/ml G418 (Gibco-BRL). Cells were seeded the night before (1.5×10^4 cells/well) in 96-well tissue-culture sterile plates. Compound and no compound controls were prepared in DMEM containing 4% FCS, 1:100 Penicillin/Streptomysin (Gibco-BRL), 1:100 L-glutamine and 5% DMSO in the dilution plate (0.5% DMSO final concentration in the assay). Compound/DMSO mixes were added to the cells and incubated for 4 days at 37° C. After 4 days, cells were first assessed for cytotoxicity using alamar Blue (Trek Diagnotstic Systems) for a CC50 reading. The toxicity of compound (CC50) was determined by adding 1/10th volume of alamar Blue to the media incubating the cells. After 4 h, the fluorescence signal from each well was read, with an excitation wavelength at 530 nm and an emission wavelength of 580 nm, using the Cytofluor Series 4000 (Perspective Biosystems). Plates were then rinsed thoroughly with Phosphate-Buffered Saline (PBS) (3 times 150 μl).

T1 sequence (P27958 1027-1657, one chain of several): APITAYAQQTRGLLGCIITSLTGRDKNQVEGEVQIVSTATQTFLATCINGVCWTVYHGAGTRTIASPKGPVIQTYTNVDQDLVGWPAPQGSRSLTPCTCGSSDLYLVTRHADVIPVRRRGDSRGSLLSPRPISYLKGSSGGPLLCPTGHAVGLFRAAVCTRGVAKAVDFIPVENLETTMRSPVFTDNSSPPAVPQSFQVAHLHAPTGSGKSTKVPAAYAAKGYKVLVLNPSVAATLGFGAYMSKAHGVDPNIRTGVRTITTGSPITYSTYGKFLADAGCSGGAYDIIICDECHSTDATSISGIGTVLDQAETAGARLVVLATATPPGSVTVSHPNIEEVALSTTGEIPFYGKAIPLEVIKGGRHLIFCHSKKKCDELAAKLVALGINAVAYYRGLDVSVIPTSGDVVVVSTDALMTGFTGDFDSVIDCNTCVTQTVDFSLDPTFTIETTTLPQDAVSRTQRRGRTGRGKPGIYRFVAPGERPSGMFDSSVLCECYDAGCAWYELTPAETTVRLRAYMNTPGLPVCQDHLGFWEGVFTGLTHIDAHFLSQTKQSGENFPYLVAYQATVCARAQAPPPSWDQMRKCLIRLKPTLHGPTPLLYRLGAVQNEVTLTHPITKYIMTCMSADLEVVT

For `COc1ccc2c(O[C@@H]3C[C@H]4C(=O)N[C@]5(C(=O)NS(=O)(=O)C6CC6)C[C@H]5/C=C\CCCCC[C@H](Nc5ccc(OC)nc5)C(=O)N4C3)nccc2c1` (single isomer, unassigned) [Compound 1], the IC50 (NS3/4A protease complex) was 7 nM, the EC50 ([1]; 96 h, HUH-7 replicon cells, 4 days, read-out: EC50 value in the replicon FRET assay) was 21 nM and the EC50 ([1]; Huh-7, Table 2, replicon assay variant and unit inferred, read-out: EC50) was 20.5 nM.
